Data set [1] has as its system dry macular degeneration rabbit model. In words: Protection against retinal layer thickness reduction by instillation 2 (ONL thickness). It is filed as in vivo. The conditions noted are these: FIG. 8. As to the method:
The eyeballs were extracted from the dry macular degeneration rabbit model used in Experimental Example 7, and the thickness of ONL was measured.

Data set [2] concerns RGC-5 (rat ganglion cell). Kind of data set: Retinal nerve protection under oxygen-glucose deprivation (OGD), LDH assay. It is filed as cell-based. Conditions: RGC-5, OGD 15 hours, compound 20 μM, DMSO control = 100%. The gist of the method: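 RGC-5 cells switched to glucose-free DMEM with compound (20 μM) or 0.1% DMSO and held 15 h at 37° C under anaerobic gas (10% H2, 5% CO2, 85% N2). Cell death from released LDH (formazan, 490 nm), scaled with OGD control as 100% and normal-medium cells as 0%; triplicate wells, experiments in triplicate.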

Data set [3] deals with RGC-5 (rat ganglion cell-5). Kind of data set: Retinal neuron protection under necroptosis inducing (TCZ; TNFα+cycloheximide+zVAD) condition, LDH assay. The data set is classed as cell-based. Conditions: RGC-5, TCZ 15 hours, compound 20 μM, DMSO control = 100%. As to the method: The following experiment was performed to evaluate the retinal neuron protection effect of the compounds of the invention under necroptosis inducing condition.
The retinal ganglion cell line RGC-5 (rat ganglion cell-5) was cultured in DMEM (Dulbecco's modified Eagle's medium) supplemented with 10% FBS (fetal bovine serum) and 1% penicillin/streptomycin. The cells were distributed in a 96-well plate at the density of 8×10^3 cells/well, followed by culture in a 37° C., CO2 incubator for 12 hours. The medium supplemented with TNFα (10 ng/ml), cycloheximide (10 μg/ml), and zVAD (10 μM) (TCZ) was treated with DMSO (0.1%) alone (control) or with the compounds of the invention (20 μM), followed by additional culture in a 37° C., CO2 incubator for 15 hours to induce cell death.
The level of cell death was measured by LDH (lactate dehydrogenase, Roche) assay. The level of the control LDH under TCZ condition was regarded as 100%, and the level of LDH in the cell group cultured in normal medium (10% FBS, DMEM) for the same time was used for the measurement of the relative rate of cell death. The compounds of examples of the invention were treated to wells, each compound for three wells, and then each experiment was performed in triplicate.

Data set [4] addresses T1, RIPK1 (receptor-interacting serine/threonine-protein kinase 1) (Homo sapiens (Human), UniProt Q13546). In words: IC50 to RIPK1, immuno-precipitated enzyme with [32P]γ-ATP. Conditions: 10-0.05 μM, 100 μM ATP. It is filed as biochemical. As to the method: RIPK1 enzyme immuno-precipitated in HEK293 (Human Embryonic Kidney 293) cell lysate was used as a kinase. The experiment was performed according to the method described in Cell. 12; 137(6):1112-23(2009).
RIPK1 protein was over-expressed in HEK293 cell line, to which lysis buffer (50 mM Tris-Cl [pH 8.0], 150 mM NaCl, 1 mM EDTA, 1% NP-40, 0.4 mM phenylmethylsulfonyl fluoride (PMSF)) was added for cell lysis. Centrifugation was performed at 13,000 rpm for 10 minutes to separate the supernatant. RIPK1 monoclonal antibody (610459, BD Bioscience) and A/G agarose beads (sc-2003, Santa Cruz Biotechnology) were added thereto, followed by immuno-precipitation in a 4° C. rotator for 12 hours.
The compounds of examples of the invention were diluted at the different concentrations of 10 μM˜0.05 μM (10, 5, 1, 0.5, 0.1, 0.05 uM) and mixed with the immuno-precipitated RIPK1 enzyme, followed by reaction in a 24° C. constant-temperature water bath for 15 minutes. Additional reaction was induced for 30 minutes at 30° C. after 100 μM of ATP and 10 μCi[^32P] γ-ATP were added thereto. The reaction mixture was washed with buffer once, to which protein loading buffer was added, followed by heating at 100° C. for 3 minutes. The reaction mixture was then loaded on 8% SDS-PAGE gel. Radioactive image of the phosphorylated RIPK1 was detected with FLA-7000 (GE healthcare). The image Quant TL program was used for the quantification. Based on the results, IC50 of the compound was calculated by using sigmaplot 10.0 program.

For data set [5], the system named is dry macular degeneration rat model. Kind of data set: Retinal cell protection by instillation, sodium iodate rat model, H&E staining. The data set is classed as in vivo. Conditions: SI ip 50 mg/kg, eye drops 50 μl twice a day, FIG. 2. Here is the method: From 3 days before the administration of sodium iodate (SI) to the 8-week-old dry macular degeneration rat model, the compound of the invention was instillated twice a day (50 μl/each eye drop instillation) and SI (ip, 50 mg/kg) was administered once. Additionally, the compound was instillated twice a day for 7 days. 7 days later, the eyeballs were extracted, followed by H&E staining to investigate retinal cell protection effect (n=3, 6 eyes). FIG. 1 is a schematic diagram illustrating the construction of the dry macular degeneration rat model and the eye drop instillation of the compounds of the invention.
The eyeballs were extracted from the dry macular degeneration rat model constructed by the same manner as described in FIG. 1, followed by histostaining.
To measure the survival rate (%) of retinal pigment epithelial cells, the eyeballs extracted from the experimental rats were fixed in 4% glutaraldehyde solution for 4 hours and embedded in paraffin. Tissue sections were prepared in 5 μm thickness, followed by H&E (Hematoxylin and Eosin) staining. Photomicrographs were taken of 2-3 different areas within the RPE (retinal pigment epithelium) layer on 100× optical microscope (Leica), and the number of stained cells was counted. The number of RPE cells in the normal rat group was regarded as 100%, based on which the survival rate was calculated.

For data set [6], the target named is T1, RIPK1 (receptor-interacting serine/threonine-protein kinase 1). In words: RIPK1 inhibitory activity, autophosphorylation of immuno-precipitated RIPK1 with [32P]γ-ATP. The data set is classed as biochemical. The conditions noted are these: compound 100 μM; remaining RIPK1 phosphorylation. The gist of the method: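 RIPK1 overexpressed in HEK293, immunoprecipitated, preincubated with compound 15 min at 24 °C in HEPES pH 7.6 kinase buffer with Mg2+/Mn2+. Autophosphorylation run 30 min at 30 °C with 100 μM ATP plus [32P]γ-ATP, resolved by SDS-PAGE and quantified by phosphorimaging.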

A short description of data set [7]: Solubility in water of doxycycline forms. The data set is classed as physicochemical.
The test system of data set [8] is retinal degeneration rabbit model. In words: Drug efficacy by ERG (electroretinography) 1. The data set is classed as in vivo. Conditions: for response compared to normal (100%) / Drug efficacy (%): ERG; for Wave ratio / Drug efficacy (%): SI model; for Wave ratio: ERG wave A after one week, eye drops 100 μl twice a day, Comparative Example 3 oral 10 mg/rabbit once a day, Normal = 1.00. As to the method: The normal rabbit was anesthetized, which was adapted for 20 minutes in a dark room. Retinal potential difference was measured by ERG equipment. Electroretinography is a method to observe the response of photoreceptor cells with two light intensities. Particularly, A and B waves were measured from 100 to 10000 mcd, and the retinal potential difference measured at 3000 mcd. Drug efficacy was evaluated by observing the photoreceptor cells, for which the stronger response to wave A was selected.
Evaluation of candidate substances for dry macular degeneration was performed using a retinal degeneration rabbit model. The compounds of Comparative Examples 2 and 3 were used as comparative compounds. […] The compound of Comparative Example 3 was orally administered once a day (10 mg/rabbit, dissolved in saline).

Data set [9] concerns dry macular degeneration pig model. In words: Drug efficacy by fundoscopy. The data set is classed as in vivo. The conditions noted are these: IAA 10 mg/kg iv, 7 days after induction, FIG. 13. Here is the method:
First, to construct a dry macular degeneration pig model, 10 mg/kg of iodoacetic acid (IAA) was dissolved in PBS (phosphate buffered saline) and injected intravenously to a mini pig (Yutacan Micropig). One week after the IAA administration, retinal degeneration was confirmed by retinal fundus photography and fluorescence (Experimental eye research 2012. 97, 137-147), and a schematic diagram illustrating the eye drop instillation of the compounds is shown in FIG. 12.
The eye drop instillation of the compounds of the invention was performed from a day before the IAA administration as shown in FIG. 12. 7 days after the induction of retinal degeneration in the pig, retinal fundus photographs were taken and the results are shown in FIG. 13.

Data set [10] shares this test system. Kind of data set: Drug efficacy by ERG (electroretinography) 2. It is filed as in vivo. As to the method: The experiment was performed by the same manner as described in Experimental Example 10 except that a dry macular degeneration pig model was used instead of the dry macular degeneration rabbit model.

Each structure is given as a SMILES string. “And” between values parts separate entries of the source, which are not always exact repeats. Equal entries are not always repeated.

As usually defined, the IC50 is the midpoint of a concentration-inhibition curve. Lower therefore signals greater potency.

T1 sequence (Q13546 whole entry, species assumed): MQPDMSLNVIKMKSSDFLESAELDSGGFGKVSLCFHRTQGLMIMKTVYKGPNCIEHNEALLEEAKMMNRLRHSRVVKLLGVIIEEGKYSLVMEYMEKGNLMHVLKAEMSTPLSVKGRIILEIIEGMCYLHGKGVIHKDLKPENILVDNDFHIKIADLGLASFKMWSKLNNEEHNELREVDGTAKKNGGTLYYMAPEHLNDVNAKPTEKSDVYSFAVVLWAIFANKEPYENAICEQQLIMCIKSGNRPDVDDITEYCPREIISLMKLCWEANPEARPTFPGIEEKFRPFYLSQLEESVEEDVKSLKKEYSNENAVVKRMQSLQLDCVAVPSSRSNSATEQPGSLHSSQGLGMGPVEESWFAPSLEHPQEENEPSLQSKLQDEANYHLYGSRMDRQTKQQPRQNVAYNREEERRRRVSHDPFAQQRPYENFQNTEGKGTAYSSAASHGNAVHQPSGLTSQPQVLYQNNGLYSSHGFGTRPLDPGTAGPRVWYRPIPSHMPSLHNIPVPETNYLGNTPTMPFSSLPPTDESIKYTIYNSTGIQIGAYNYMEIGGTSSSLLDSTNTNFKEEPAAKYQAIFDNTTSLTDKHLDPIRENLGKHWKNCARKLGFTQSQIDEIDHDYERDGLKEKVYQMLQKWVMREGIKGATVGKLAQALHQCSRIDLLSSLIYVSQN

Regarding `O=C(c1cc2c(-c3ccc(F)cc3)cccc2s1)N1CCOCC1` [Example 39, (4-(4-fluorophenyl)benzo[b]thiophene-2-yl)(morpholino)methanone], in data set [1], the “retinal layer thickness protection effect” value is 70˜80% and 70-80%. Besides, the “Death of retinal nerve cell (%)” value in [2] worked out at 46.2 ± 0.8%; in data set [3] it was 74.9 ± 9.1%. In data set [4], this compound showed an IC50 of 193 nM. For the same compound, in data set [5], the “retina degeneration by histostaining” value was “retina degeneration was not observed”. The compound further gave an activity at 100 µM in [6] of 3.7 ± 2.6%.

For `C[C@H]1c2cccc(O)c2C(=O)C2=C(O)[C@]3(O)C(=O)C(C(N)=O)=C(O)[C@@H](N(C)C)[C@@H]3[C@@H](O)[C@@H]21` [Comparative Example3-MH, doxycycline], the solubility in water result in [7] (listed as MH) was “not dissolved in water”. In addition, the “response compared to normal (100%)” value in [8] (FIG. 11, listed as 3-MH) amounted to 74.1%; in data set [8] (FIG. 11, listed as Comparative Example 3-MH), 74.1%. The Wave ratio in data set [8] is reported as 0.74. In addition, the “Drug efficacy (%)” value in data set [8] (Normal = 100, Veh. = 0) is 46%.

For the compound `C[C@H]1c2cccc(O)c2C(=O)C2=C(O)[C@]3(O)C(=O)C(C(N)=O)=C(O)[C@@H](N(C)C)[C@@H]3[C@@H](O)[C@@H]21` [Comparative Example3-HC, doxycycline], the retinal fundus photographs result in [9] is “damaged areas (*) were observed”. The “wave A response” value in [10] (ERG, FIG. 14 and 15) is recorded as “wave A response was reduced”. In addition, the Wave ratio is 0.38 in data set [10] (IAA model, ERG wave A, Normal = 1.00) and 0.67 in [8]. Also, the “Drug efficacy (%)” value in data set [10] (IAA model, ERG, Normal = 100, Veh. = 0) is 18%; in data set [8] (Normal = 100, Veh. = 0) it was 31%; in data set [8] (Normal = 100, Veh. = 0, listed as Comparative Example 3 (HC)), 31%; in data set [8] (Normal = 100, Veh. = 0, listed as Comparative Example 3-HC) it was 31%. In data set [7] (listed as HC), the solubility in water result is “well dissolved in water”. Further, the “response compared to normal (100%)” value in [8] (FIG. 11, listed as 3-HC) is on record as 66.9%; in data set [8] (FIG. 11, listed as Comparative Example 3-HC) it was 66.9%.

The values above are taken from patent publication US10501473B2, “Fused heterocyclic ring compounds and method of treating retinal disease using same” (THE INDUSTRY & ACADEMIC COOPERATION IN CHUNGNAM NATIONAL …, priority 2014, dated 2019).
